# Assays:
# [1] = test system: greenhouse red spider mite (Tetranychus urticae); test: Tetranychus Test, OP-resistant/spray treatment (Example I); assay type: in vivo; details: 100 ppm active compound, bean leaf discs sprayed, OP-resistant
# Protocol: Solvents: 78 parts by weight of acetone
# • 1.5 parts by weight of dimethylformamide Emulsifier: 0.5 part by weight of alkylaryl polyglycol ether
# After the desired period of time, the activity in % is determined.
# [2] = test system: larvae of the mustard beetle (Phaedon cochleariae); test: Phaedon Larvae Test (Example G); details: 100 ppm active compound, cabbage leaves dipped
# [3] = test system: caterpillars of the armyworm (Spodoptera frugiperda); test: Spodoptera frugiperda Test (Example H); assay type: in vivo; details: 100 ppm active compound, cabbage leaves dipped
# Excerpt: (§1) Solvent: 7 parts by weight of dimethylformamide
# [4] = test system: cotton aphid (Aphis gossypii); test: Aphis gossypii Test (Example A); assay type: in vivo; details: 20 ppm active compound, cotton leaves dipped
# Excerpt: as §1
# [5] = test system: larvae of the mustard beetle (Phaedon cochleariae); test: Phaedon Larvae Test (Example C); details: cabbage leaves dipped
# [6] = test system: Heliothis virescens caterpillars; test: Heliothis virescens Test (Example B); assay type: in vivo; details: 500 ppm active compound, soybean shoots dipped
# Excerpt: as §1
# [7] = test system: caterpillars of the diamondback moth (Plutella xylostella/resistant strain); test: Plutella Test, resistant strain (Example D); assay type: in vivo; details: 4 ppm active compound, cabbage leaves dipped
# Excerpt: as §1
# [8] = test system: greenhouse red spider mite (Tetranychus urticae); test: Tetranychus Test, OP-resistant/dip treatment (Example J); assay type: in vivo; details: 4 ppm active compound, bean plants dipped, OP-resistant
# [9] = test system: peach aphid (Myzus persicae); test: Myzus Test (Example F); assay type: in vivo; details: 4 ppm active compound, cabbage leaves dipped
# Excerpt: as §1
smiles,measurement,setting,value
CCOC1CCC2(CC1)NC(=O)C(c1cc(C)ccc1Cl)=C2OC(=O)C(C)C (stereo not drawn),Kill rate in % after 4^d,[1],70%
CO[C@H]1CC[C@]2(CC1)NC(=O)C(c1cc(C)ccc1C)=C2O [Example I-a-1],Kill rate in % after 7^d,[2],100%
same,Kill rate in % after 7^d,[3],50%
CCOC(=O)OC1=C(c2cc(C)ccc2C)C(=O)N[C@]12CC[C@@H](OC)CC2 [Example I-c-1],Kill rate in % after 6^d,[4],90%
same,Kill rate in % after 7^d,[5]; 20 ppm active compound,80%
same,Kill rate in % after 7^d,[5]; 100 ppm active compound,100%
CCOC(=O)OC1=C(c2cc(C)ccc2Br)C(=O)N[C@]12CC[C@@H](OC)CC2 [Example I-c-2],Kill rate in % after 6^d,[6],100%
same,Kill rate in % after 6^d,[7],100%
CCOC(=O)OC1=C(c2cc(Br)ccc2C)C(=O)N[C@]12CC[C@@H](OC)CC2 [Example I-c-4],Kill rate in % after 7^d,[2],25%
same,Kill rate in % after 7^d,[8],40%
same,Kill rate in % after 7^d,[3],20%
same,Kill rate in % after 6^d,[9],50%
